Laboratory results published in US20060252807A1, “Novel ortho-terphenyl inhibitors of p38 kinase and methods of treating inflammatory disorders” (Kalypsys, Inc., priority 2005, published 2006).

Target: T1, active p38 alpha enzyme (Upstate Biotechnology) (Homo sapiens, UniProt Q16539)
T1 construct: purchased Upstate Biotechnology
Assay: p38α biochemical assay (ATP turnover, luminescent detection, Cambrex PKlight)
Conditions: p38α kinase; Table 1 Biological Activity
Summary of the method: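 Compounds in DMSO are added to active p38 alpha with MapkapK2 whole protein and ATP at 1.4 uM final. Reactions then run for 2 hours at 30C. A luminescent reagent is added last to quantify total ATP consumed.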

T1 sequence (Q16539 whole entry): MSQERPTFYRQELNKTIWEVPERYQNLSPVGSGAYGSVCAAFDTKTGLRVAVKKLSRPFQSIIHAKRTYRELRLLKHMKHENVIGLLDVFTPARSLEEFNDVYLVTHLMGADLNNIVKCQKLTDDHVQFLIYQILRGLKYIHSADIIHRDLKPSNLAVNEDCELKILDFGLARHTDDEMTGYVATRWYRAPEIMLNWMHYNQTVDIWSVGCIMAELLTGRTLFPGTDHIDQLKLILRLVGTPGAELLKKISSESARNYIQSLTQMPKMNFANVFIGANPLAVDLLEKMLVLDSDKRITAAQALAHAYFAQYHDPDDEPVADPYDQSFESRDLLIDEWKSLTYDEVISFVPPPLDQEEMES

Row | Compound | IC50
1 | CC(C)NC(=O)c1csc(-c2c(-c3ccc(F)cc3)noc2CNCCNC(=O)OC(C)(C)C)n1 [Example 1484] | > 1000 nM
2 | CC(C)NC(=O)c1csc(-c2c(-c3ccc(F)cc3)noc2CNCc2ccc(C(C)(C)C)cc2)n1 [Example 1486] | > 1000 nM
3 | CC(C)NC(=O)c1csc(-c2c(-c3ccc(F)cc3)noc2CNCCCN(C)c2ccccc2)n1 [Example 1487] | > 1000 nM
4 | CC(C)NC(=O)c1csc(-c2c(-c3ccc(F)cc3)noc2CNCc2ccc(C(F)(F)F)cc2)n1 [Example 1493] | > 1000 nM
5 | CC(C)NC(=O)c1csc(-c2c(-c3ccc(F)cc3)noc2CNCc2ccc(Cl)cc2Cl)n1 [Example 1496] | > 1000 nM
6 | COc1ccc(CNCc2onc(-c3ccc(F)cc3)c2-c2nc(C(=O)NC(C)C)cs2)cc1O [Example 1500] | > 1000 nM
7 | CC(C)NC(=O)c1csc(-c2c(-c3ccc(F)cc3)noc2CNCc2ccccc2OC(F)(F)F)n1 [Example 1502] | > 1000 nM
8 | CC(C)NC(=O)c1csc(-c2c(-c3ccc(F)cc3)noc2CNCCc2ccc(S(N)(=O)=O)cc2)n1 [Example 1503] | > 1000 nM
9 | CC(C)NC(=O)c1csc(-c2c(-c3ccc(F)cc3)noc2CNCCc2ccc3c(c2)OCO3)n1 [Example 1505] | > 1000 nM
10 | CC(C)NC(=O)c1csc(-c2c(-c3ccc(F)cc3)noc2CNCCC(c2ccccc2)c2ccccc2)n1 [Example 1506] | > 1000 nM
11 | Cc1ccc(S(=O)(=O)NCCNCc2onc(-c3ccc(F)cc3)c2-c2nc(C(=O)NC(C)C)cs2)cc1 [Example 1507] | > 1000 nM
12 | CC(C)NC(=O)c1csc(-c2c(-c3ccc(F)cc3)noc2CN2CCOCC2)n1 [Example 1509] | > 1000 nM
13 | CCN(CC)Cc1onc(-c2ccc(F)cc2)c1-c1nc(C(=O)NC(C)C)cs1 [Example 1513] | > 1000 nM
14 | CCCN(C)Cc1onc(-c2ccc(F)cc2)c1-c1nc(C(=O)NC(C)C)cs1 [Example 1514] | ≤ 1000 nM
15 | CC(C)NC(=O)c1csc(-c2c(-c3ccc(F)cc3)noc2CN(C)CCC#N)n1 [Example 1516] | > 1000 nM
16 | CCN(Cc1onc(-c2ccc(F)cc2)c1-c1nc(C(=O)NC(C)C)cs1)C(C)C [Example 1518] | > 1000 nM
17 | CC(C)NC(=O)c1csc(-c2c(-c3ccc(F)cc3)noc2CN2CCSC2)n1 [Example 1521] | > 1000 nM

Row | Compound | IC50
18 | CC(C)NC(=O)c1csc(-c2c(-c3ccc(F)cc3)noc2CN2CCCC2CO)n1 (stereo not drawn) [Example 1525] | ≤ 1000 nM
19 | CC(C)NC(=O)c1csc(-c2c(-c3ccc(F)cc3)noc2CN2CCSCC2)n1 [Example 1529] | > 1000 nM
20 | CC1CC(C)CN(Cc2onc(-c3ccc(F)cc3)c2-c2nc(C(=O)NC(C)C)cs2)C1 (stereo not drawn) [Example 1531] | > 1000 nM
21 | CC(C)NC(=O)c1csc(-c2c(-c3ccc(F)cc3)noc2CN(C)C2CCCCC2)n1 [Example 1532] | > 1000 nM
22 | CC(C)NC(=O)c1csc(-c2c(-c3ccc(F)cc3)noc2CN2C[C@@H](C)N[C@@H](C)C2)n1 [Example 1535] | > 1000 nM
23 | CC(C)NC(=O)c1csc(-c2c(-c3ccc(F)cc3)noc2CN2CCCC(CO)C2)n1 (stereo not drawn) [Example 1536] | > 1000 nM
24 | COC[C@@H]1CCCN1Cc1onc(-c2ccc(F)cc2)c1-c1nc(C(=O)NC(C)C)cs1 [Example 1537] | > 1000 nM
25 | CC(C)NC(=O)c1csc(-c2c(-c3ccc(F)cc3)noc2CN2CCCCC2CO)n1 (stereo not drawn) [Example 1539] | > 1000 nM
26 | CC(C)NC(=O)c1csc(-c2c(-c3ccc(F)cc3)noc2CN(C)Cc2ccccc2)n1 [Example 1542] | > 1000 nM
27 | CCN(Cc1onc(-c2ccc(F)cc2)c1-c1nc(C(=O)NC(C)C)cs1)C1CCCCC1 [Example 1543] | > 1000 nM
28 | CC(C)NC(=O)c1csc(-c2c(-c3ccc(F)cc3)noc2CN2CCC(C(N)=O)CC2)n1 [Example 1544] | > 1000 nM
29 | CC(=O)N[C@H]1CCN(Cc2onc(-c3ccc(F)cc3)c2-c2nc(C(=O)NC(C)C)cs2)C1 [Example 1545] | > 1000 nM
30 | CC(C)NC(=O)c1csc(-c2c(-c3ccc(F)cc3)noc2CN2CCCCC2CCO)n1 (stereo not drawn) [Example 1548] | > 1000 nM
31 | CCN(Cc1ccccc1)Cc1onc(-c2ccc(F)cc2)c1-c1nc(C(=O)NC(C)C)cs1 [Example 1550] | > 1000 nM
32 | CC(C)NC(=O)c1csc(-c2c(-c3ccc(F)cc3)noc2CN(C)CCc2ccccc2)n1 [Example 1552] | > 1000 nM
33 | CC(C)NC(=O)c1csc(-c2c(-c3ccc(F)cc3)noc2CN(Cc2ccccc2)C(C)C)n1 [Example 1558] | > 1000 nM
34 | CC(C)NC(=O)c1csc(-c2c(-c3ccc(F)cc3)noc2CN(CCO)Cc2ccccc2)n1 [Example 1559] | > 1000 nM

The next lines start with the values.

Row | IC50 | Compound
35 | > 1000 nM | CC(C)NC(=O)c1csc(-c2c(-c3ccc(F)cc3)noc2CNCc2ccc(F)c(Cl)c2)n1 [Example 1483]
36 | > 1000 nM | CC(C)NC(=O)c1csc(-c2c(-c3ccc(F)cc3)noc2CNCCc2c[nH]c3ccccc23)n1 [Example 1485]
37 | > 1000 nM | CC(C)NC(=O)c1csc(-c2c(-c3ccc(F)cc3)noc2CNCC2(O)CCCCC2)n1 [Example 1488]
38 | > 1000 nM | COc1cc(CNCc2onc(-c3ccc(F)cc3)c2-c2nc(C(=O)NC(C)C)cs2)cc(OC)c1 [Example 1489]
39 | > 1000 nM | COc1ccc(CNCc2onc(-c3ccc(F)cc3)c2-c2nc(C(=O)NC(C)C)cs2)cc1OC [Example 1490]
40 | > 1000 nM | CC(C)NC(=O)c1csc(-c2c(-c3ccc(F)cc3)noc2CNCC(=O)c2ccccc2)n1 [Example 1491]
41 | > 1000 nM | CC(C)NC(=O)c1csc(-c2c(-c3ccc(F)cc3)noc2CNCCCNC(=O)OC(C)(C)C)n1 [Example 1492]
42 | > 1000 nM | CC(C)NC(=O)c1csc(-c2c(-c3ccc(F)cc3)noc2CNCc2cccc(C(F)(F)F)c2)n1 [Example 1494]
43 | > 1000 nM | CC(C)NC(=O)c1csc(-c2c(-c3ccc(F)cc3)noc2CNCc2ccc(Cl)c(Cl)c2)n1 [Example 1495]
44 | > 1000 nM | CC(C)NC(=O)c1csc(-c2c(-c3ccc(F)cc3)noc2CNC2CCN(Cc3ccccc3)C2)n1 (stereo not drawn) [Example 1497]
45 | > 1000 nM | COc1ccc(OC)c(CCNCc2onc(-c3ccc(F)cc3)c2-c2nc(C(=O)NC(C)C)cs2)c1 [Example 1498]
46 | > 1000 nM | CC(C)NC(=O)c1csc(-c2c(-c3ccc(F)cc3)noc2CNCc2ccc(N(C)C)cc2)n1 [Example 1499]
47 | > 1000 nM | CC(C)NC(=O)c1csc(-c2c(-c3ccc(F)cc3)noc2CNC2CCN(Cc3ccccc3)CC2)n1 [Example 1501]
48 | > 1000 nM | COc1ccc(C(=O)CNCc2onc(-c3ccc(F)cc3)c2-c2nc(C(=O)NC(C)C)cs2)cc1 [Example 1504]
49 | > 1000 nM | CC(C)NC(=O)c1csc(-c2c(-c3ccc(F)cc3)noc2CN(C)C)n1 [Example 1508]
50 | > 1000 nM | CCN(C)Cc1onc(-c2ccc(F)cc2)c1-c1nc(C(=O)NC(C)C)cs1 [Example 1511]
51 | > 1000 nM | C#CCN(C)Cc1onc(-c2ccc(F)cc2)c1-c1nc(C(=O)NC(C)C)cs1 [Example 1512]
52 | ≤ 1000 nM | CC(C)NC(=O)c1csc(-c2c(-c3ccc(F)cc3)noc2CN(C)CCO)n1 [Example 1515]
53 | > 1000 nM | CC(C)CN(C)Cc1onc(-c2ccc(F)cc2)c1-c1nc(C(=O)NC(C)C)cs1 [Example 1517]
54 | > 1000 nM | CCCCN(C)Cc1onc(-c2ccc(F)cc2)c1-c1nc(C(=O)NC(C)C)cs1 [Example 1519]
55 | > 1000 nM | CCN(CCO)Cc1onc(-c2ccc(F)cc2)c1-c1nc(C(=O)NC(C)C)cs1 [Example 1520]

Row | IC50 | Compound
56 | > 1000 nM | CC(C)NC(=O)c1csc(-c2c(-c3ccc(F)cc3)noc2CN2CCCCC2C)n1 (stereo not drawn) [Example 1522]
57 | > 1000 nM | CC1CCN(Cc2onc(-c3ccc(F)cc3)c2-c2nc(C(=O)NC(C)C)cs2)CC1 [Example 1523]
58 | > 1000 nM | CC(C)NC(=O)c1csc(-c2c(-c3ccc(F)cc3)noc2CN2CCN(C)CC2)n1 [Example 1524]
59 | > 1000 nM | CC(C)NC(=O)c1csc(-c2c(-c3ccc(F)cc3)noc2CN2CCC[C@@H]2CO)n1 [Example 1526]
60 | > 1000 nM | CCCCN(CC)Cc1onc(-c2ccc(F)cc2)c1-c1nc(C(=O)NC(C)C)cs1 [Example 1527]
61 | > 1000 nM | CCCN(CCC)Cc1onc(-c2ccc(F)cc2)c1-c1nc(C(=O)NC(C)C)cs1 [Example 1528]
62 | > 1000 nM | CC(C)NC(=O)c1csc(-c2c(-c3ccc(F)cc3)noc2CN(CCO)CCO)n1 [Example 1530]
63 | > 1000 nM | CC(C)NC(=O)c1csc(-c2c(-c3ccc(F)cc3)noc2CN2C(C)CCCC2C)n1 (stereo not drawn) [Example 1533]
64 | > 1000 nM | CC(C)NC(=O)c1csc(-c2c(-c3ccc(F)cc3)noc2CN2CCC(N(C)C)C2)n1 (stereo not drawn) [Example 1534]
65 | > 1000 nM | CC(C)NC(=O)c1csc(-c2c(-c3ccc(F)cc3)noc2CN2CC(C)OC(C)C2)n1 (stereo not drawn) [Example 1538]
66 | > 1000 nM | CCN(CCCCO)Cc1onc(-c2ccc(F)cc2)c1-c1nc(C(=O)NC(C)C)cs1 [Example 1540]
67 | > 1000 nM | CC(C)NC(=O)c1csc(-c2c(-c3ccc(F)cc3)noc2CN2Cc3ccccc3C2)n1 [Example 1541]
68 | > 1000 nM | CC(C)NC(=O)c1csc(-c2c(-c3ccc(F)cc3)noc2CN2CCCC(C(N)=O)C2)n1 (stereo not drawn) [Example 1547]
69 | > 1000 nM | CC(C)NC(=O)c1csc(-c2c(-c3ccc(F)cc3)noc2CN2CCc3ccccc3C2)n1 [Example 1549]
70 | > 1000 nM | CC(C)NC(=O)c1csc(-c2c(-c3ccc(F)cc3)noc2CN(C)CCc2ccccn2)n1 [Example 1553]
71 | ≤ 1000 nM | CC(C)NC(=O)c1csc(-c2c(-c3ccc(F)cc3)noc2CN(C)CCc2ccccn2)n1 [Example 1554]
72 | > 1000 nM | CC(C)NC(=O)c1csc(-c2c(-c3ccc(F)cc3)noc2CN2CCCC3CCCCC32)n1 (stereo not drawn) [Example 1555]
73 | > 1000 nM | C=CCN(Cc1onc(-c2ccc(F)cc2)c1-c1nc(C(=O)NC(C)C)cs1)C1CCCCC1 [Example 1556]
74 | > 1000 nM | COC(=O)C1CCN(Cc2onc(-c3ccc(F)cc3)c2-c2nc(C(=O)NC(C)C)cs2)CC1 [Example 1557]
75 | > 1000 nM | CC(C)NC(=O)c1csc(-c2c(-c3ccc(F)cc3)noc2CN(C)CC(O)c2ccccc2)n1 (stereo not drawn) [Example 1560]
